Test [1] relates to MCF-7 human breast cancer cells. Kind of test: Cytotoxicity test, XTT assay. Type of test: cell-based. The arrangement: Average (XTT metabolic signal): unit not given here. The settings on record: for IC50: 74 hr incubation, XTT. On the procedure:
MCF-7 human breast cancer cells (ATCC HTB-22) were plated in 96-well plates at an initial density of 5000 cells per well in 90 μL of RMPI 1640 supplemented with 10% fetal bovine serum, 100 IU penicillin, and 100 μg/mL streptomycin, 2 mM L-glutamine, and maintained at 37° C. and 5% CO2 atmosphere. After 24 hr, stock solutions of 17-GAOH in DMSO and GA-(VKG)8ELP1-120 were diluted 10-fold with growth media and added to wells (6 wells) as […] (1% v/v final DMSO concentration). The cells were incubated with the compounds for 74 hr and the metabolic rate was determined using an XTT™ assay kit (Sigma) according to the manufacturer's instructions. The concentrations inhibiting cell growth by 50% (IC50) were determined by fixed Hill slope regression with SIGMA PLOT™ 2004 (Systat Software, Inc.).

Test [2] has as its system mouse mammary tumors. The conditions noted are these: 43° C. hyperthermia; cited from earlier work.

In the case of `CO[C@H]1/C=C\C=C(/C)C(=O)NC2=CC(=O)C(NCCO)=C(C[C@@H](C)C[C@H](OC)[C@H](O)[C@@H](C)/C=C(\C)[C@@H]1OC(N)=O)C2=O` [17-HEA-DMGA, 17-β-hydroxyethylamino-17-demethoxygeldanamycin], the values for the IC50 in test [1] (test 1) and in test [1] (test 2) were 855 nM and 731 nM, respectively. For the same compound, the “Average (XTT metabolic signal)” value amounted to 1158 in test [1] (test 1, final concentration 0.1 nM); 1288 in test [1] (test 1, final concentration 1 nM); 1274 in test [1] (test 1, final concentration 10 nM); 1588 in test [1] (test 1, final concentration 100 nM); 344 in test [1] (test 1, final concentration 1,000 nM); 114 in test [1] (test 1, final concentration 10,000 nM). Besides, the “Average (XTT metabolic signal)” value is reported as 788.5 in test [1] (test 2, final concentration 50 nM); 999.7 in test [1] (test 2, final concentration 100 nM); 774.3 in test [1] (test 2, final concentration 250 nM); 515.0 in test [1] (test 2, final concentration 500 nM); 297.5 in test [1] (test 2, final concentration 1,000 nM); 46.9 in test [1] (test 2, final concentration 2,000 nM).
On to `N.N.[Cl][Pt][Cl]` [Cisplatin], for which the “increase of thermal enhancement ratio (TER)” value in test [2] is reported as 1.4-5.0 fold.
